Patent US20100190743A1, “Method and Composition for Treatment of a Mucosal Tissue Disorder” (Chitogenics, Inc., priority 2005, published 2010)

Tests used:
interstitial cystitis = settings: cited from earlier work
[1] = tested on: rat model of Interstitial Cystitis; assay: Efficacy of sNOCC in reducing inflammation in a rat model of interstitial cystitis (Example 2), bladder histology inflammatory score; type: in vivo
Experimental: Animals: Female Sprague-Dawley rats (225-250 g) were purchased from Charles River Laboratories. Animals were provided with food and water ad libitum. Intra-vesicular inoculation of protamine sulfate (PS) and LPS: Rats were anesthetized with sodium pentobarbital (65 mg/kg). The surface area around the urethral opening was swabbed with 70% isopropyl alcohol and Betadine. A lubricated sterile catheter (PE-50), handled with sterile gloves, was inserted into the bladder through the urethral opening. The catheter was connected to a 1 ml syringe via a 25 G needle and the bladder was emptied as described above. One group of rats was inoculated with 1 ml PS (10 mg/ml) in phosphate buffered saline (PBS) into the bladder via the catheter. After 45 minutes, the bladders were emptied, washed with PBS, then given a second treatment with 1 ml LPS (750 μg/ml) in PBS for 30 minutes. […]
The parameters of inflammation measured were: increased venous blood vessel size and volume (venous congestion), edema, cellular infiltration, and epithelial damage. […] The parameters were measured by a blinded observer using a five point score with 0 being the least severe and 5 being the most severe. A total inflammatory score was calculated for each rat by adding together the scores of the four inflammatory parameters. A mean total inflammatory score was calculated for each group. […]

Question: With C[S+](C)[O-] [DMSO, dimethylsulfoxide] as the compound, how does the “average length of response” value (interstitial cystitis; instillation into the bladder for six to eight weeks) read?
Answer: The value was “six”.

Question: And the response rate (interstitial cystitis; instillation into the bladder for six to eight weeks, placebo 18%)?
Answer: The response rate was 53%.

Question: For Nc1ccc(O)c(C(=O)O)c1 [saline + 5ASA, 5-aminosalicylic acid], which “Mean Inflammatory Score (±SEM)” value ([1]; agent 1 ml intravesical 1 day after PS/LPS, sacrifice day 5 post inoculation, total of four parameters each scored 0-5, saline control 12.7 (±1.5)) is on record?
Answer: Its value is 7.9 (±1.8).

Question: What about the “% reduction of inflammation from saline treated control” value ([1]; from mean inflammatory score, day 5 post inoculation) of the same compound?
Answer: The value was 37.5%.

Question: For oxychlorosene sodium, which “results relative to instillation of DMSO” value (interstitial cystitis; Messing et al. 1978) is on record?
Answer: The value was “Equivalent results”.
